Measurements published in patent US20150313921A1, “Cancer Treatment Methods” (PLEDPHARMA AB, priority 2012, published 2015).
Read-outs that look alike come from different tables or passages of the source. Blank lines part the entries; values can stand above or below the compound they belong to.

Tests used:
[1] = Mn2+ versus Zn2+
[2] = test system: human non-small cell lung cancer (NSCLC) U1810 cells; assay: MTT viability assay, U1810 cells; format: cell-based; details: for IC50: 48 h exposure, read-out: IC50 (concentration causing 50% inhibition of viability)
Experimental: The viability of cells was measured using the MTT assay. […] Cells were then exposed for 48 h to 1-1,000 μM DPDP (lot #RDL02090206) or MnDPDP (lot #02090106). […] The viability of U1810 cells in the presence of increasing concentrations of DPDP or MnDPDP is presented as concentration-response curves (mean±S.D.). The individual curves were fitted to the sigmoidal normalized response logistic equation (Graphpad Prism, version 5.02). From this analysis the concentrations causing 50% inhibition (IC50) of the test substances were calculated.

[3] = test system: ovarian carcinoma A2780 cells; assay: MTT viability assay, A2780 cells; details: for cytotoxic effect in A2780 cells: alone (MnDPDP: alone or with Dx 3 nM or 30 nM), 48 h, MTT; for EC50: Homo sapiens, A2780, 48 h
Experimental: A2780 cells were co-incubated with MnDPDP, DPDP, and/or Dx. The viability of cells was measured using the methylthiazoletetrazolium (MTT) assay. Briefly, 8000 cells were seeded per well on a 96-well plate and grown overnight under standards. Cells were then exposed for 48 hours to various concentrations of MnDPDP, DPDP, and/or Dx at 37° C. The viability of the cells was then assessed by adding 5 mg/ml MTT to a final concentration of 0.5 mg/ml and incubating cells for a further 4 hours at 37° C. The blue formazan that is formed by mitochondrial dehydrogenases of viable cells was then dissolved overnight at 37° C. by adding 10% SDS and 10 mM HCl to a final concentration of 5% SDS and 5 mM HCl. Finally, the absorbance of the solution was read at 570 nm with a reference at 670 nm in a microplate reader (SpectraMax 340; Molecular Devices, Sunnyvale, Calif.) connected to an Apple Macintosh computer running the program Softmax Pro V1.2.0 (Molecular Devices). Viability is expressed as percent absorbance (A570 nm-A670 nm) relative to the untreated control cells. All values were given as arithmetic means±SD for in vitro cell MTT viability data. In vitro responses of Dx, MnDPDP, and/or DPDP with regard to viability are presented as concentration-effect curves. […] From this analysis, the low and Q7 high pD2 values (negative log of the concentration of Dx that produces half of its maximal inhibition in the two phases, −logIC50) were calculated.

[4] = pigs, ten minutes after injection; cited from earlier work
[5] = cited from earlier work
infarct size = details: pigs; MnPLED 3 μmol/kg; cited from earlier work
[6] = cited from earlier work; remark: listed apart in the source

SMILES: Cc1ncc(COP(=O)(O)O)c(CN(CCN(CC(=O)O)Cc2c(COP(=O)(O)O)cnc(C)c2O)CC(=O)O)c1O [DPDP, N,N′-bis-(pyridoxal-5-phosphate)-ethylenediamine-N,N′-diacetic acid]
Mn2+ dissociates more readily than Zn2+ (fold) [1]: about 1000 times
IC50 ratio between MnDPDP and DPDP (times more potent than MnDPDP) ([2]; 48 h): 17 times
IC50 [2]: 52.8 µM
cancer cells killed ([3]; 30 μM, A2780 cells): approximately 50%
cancer cells killed ([3]; 100 μM, A2780 cells): killing almost all cells
additive effect to the cytotoxic effect of Dx alone ([3]; DPDP 10 μM or 30 μM added to Dx, A2780 cells): did not reveal any obvious additive effect
cytotoxic effect in A2780 cells [3]: had cytotoxic effects

EC50 ([3]; read-out: pD2 (-logEC50), first phase (high pD2) of biphasic curve (converted)): 0.00545 µM
EC50 ([3]; read-out: pD2 (-logEC50), second phase (low pD2) of biphasic curve (converted)): 0.225 µM
SMILES: COc1cccc2c1C(=O)c1c(O)c3c(c(O)c1C2=O)C[C@@](O)(C(=O)CO)C[C@@H]3O[C@H]1C[C@H](N)[C@H](O)[C@H](C)O1 [Dx, Doxorubicin, reference compound]

SMILES: Cc1[nH+]cc(COP(=O)([O-])[O-])c(CN(CCN(CC(=O)[O-])Cc2c(COP(=O)([O-])O)c[nH+]c(C)c2O)CC(=O)[O-])c1O.[Mn].[Na+].[Na+].[Na+] [MnDPDP]
replacement of manganese with zinc [4]: all manganese has been replaced with zinc
administered manganese released ([5]; intravenous injection into humans): about 80%
injected manganese that stays bound to the chelator ([5]; man, for a considerable amount of time): about 30%
injected MnDPDP transformed into MnPLED ([5]; shortly after intravenous injection in man): about 30%
IC50 [2]: 437 µM
effect on infarct size (infarct size): did not reduce the infarct size
cytotoxic effect in A2780 cells [3]: did not have any obvious cytotoxic effects

Mn2+ dissociates more readily than Zn2+ (fold) [1]: about 1000 times
SMILES: Cc1ncc(CO)c(CN(CCN(CC(=O)O)Cc2c(CO)cnc(C)c2O)CC(=O)O)c1O [PLED, N,N′-dipyridoxyl ethylenediamine-N,N′-diacetic acid]
stability constant with Mn2+ ([6]; Mn2+): 12.56 logK
stability constant with Zn2+ ([6]; Zn2+): 16.68 logK
